Laboratory results as given in publication PMC4303209, “A novel phosphatidylinositol 3-kinase (PI3K) inhibitor directs a potent FOXO-dependent, p53-independent cell cycle arrest phenotype characterized by the differential induction of a subset of FOXO-regulated genes” (Breast Cancer Research : BCR, 2014).

Test system: MCF-7 breast cancer cells
Experiment: Microarray gene expression analysis (Agilent whole human genome 4 x 44K; compound vs DMSO, LIMMA log2 fold change)
Format: cell-based
Conditions: Apoptosis genes

Compound: Oc1cccc(-c2nc(N3CCOCC3)c3oc4ncccc4c3n2)c1 [PI-103]
- HSPD1 log2FC (Gene 3329): -0.080
- HSPE1 log2FC (Gene 3336): -0.309
- HTR2B log2FC (Gene 3357): -0.397
- IAPP log2FC (Gene 3375): -0.066
- ID1 log2FC (Gene 3397): 0.070
- ID3 log2FC (Gene 3399): -0.082
- IFI16 log2FC (Gene 3428): 0.334
- IFI27 log2FC (Gene 3429): -0.196
- IFIT2 log2FC (Gene 3433): 1.643
- IFIT3 log2FC (Gene 3437): 0.140
- IFNG log2FC (Gene 3458): -0.040
- IGBP1 log2FC (Gene 3476): 0.178
- IGF1 log2FC (Gene 3479): 0.051
- IGF1R log2FC (Gene 3480): 0.084
- IGF2R log2FC (Gene 3482): 0.351
- IGFBP3 log2FC (Gene 3486): 0.086
- IKBKB log2FC (Gene 3551): 0.122
- IL1B log2FC (Gene 3553): 0.035
- IL1RN log2FC (Gene 3557): -0.235
- IL2 log2FC (Gene 3558): -0.008
- IL4 log2FC (Gene 3565): -0.010
- IL6 log2FC (Gene 3569): 0.006
- IL6R log2FC (Gene 3570): 0.551
- IL6ST log2FC (Gene 3572): 0.257
- IL7 log2FC (Gene 3574): 0.210
- IL10 log2FC (Gene 3586): -0.050
- TNFRSF9 log2FC (Gene 3604): -0.328
- ING2 log2FC (Gene 3622): 0.264
- INHBA log2FC (Gene 3624): -0.687
- INHBB log2FC (Gene 3625): -0.799
- INS log2FC (Gene 3630): -0.043
- INPP5D log2FC (Gene 3635): -0.048
- INSL3 log2FC (Gene 3640): -0.069
- IRAK1 log2FC (Gene 3654): -0.233
- IRF1 log2FC (Gene 3659): -0.382
- IRF3 log2FC (Gene 3661): -0.472
- IRF5 log2FC (Gene 3663): 1.340
- IRF7 log2FC (Gene 3665): 0.353
- ITGA1 log2FC (Gene 3672): 0.190
- ITGA5 log2FC (Gene 3678): -0.454
- ITGAV log2FC (Gene 3685): 0.599
- ITGB1 log2FC (Gene 3688): 0.583
- ITPR1 log2FC (Gene 3708): 0.249
- JAG2 log2FC (Gene 3714): 0.522
- JAK2 log2FC (Gene 3717): 0.369
- JAK3 log2FC (Gene 3718): -0.043
- JUN log2FC (Gene 3725): -0.937
- KCNMA1 log2FC (Gene 3778): 0.170
- KNG1 log2FC (Gene 3827): -0.057
- KPNA1 log2FC (Gene 3836): -0.280
- KPNB1 log2FC (Gene 3837): 0.240
- KRT8 log2FC (Gene 3856): -0.277
- KRT18 log2FC (Gene 3875): -0.442
- LCK log2FC (Gene 3932): -0.114
- LEP log2FC (Gene 3952): -0.051
- LGALS7 log2FC (Gene 3963): -0.229
- LIG4 log2FC (Gene 3981): 0.035
- LMNA log2FC (Gene 4000): -0.013
- LMNB1 log2FC (Gene 4001): -0.018
- LRP6 log2FC (Gene 4040): -0.118
- LTBR log2FC (Gene 4055): -0.111
- LTK log2FC (Gene 4058): -0.062
- LYN log2FC (Gene 4067): -0.359
- SMAD3 log2FC (Gene 4088): 0.243
- SMAD6 log2FC (Gene 4091): 0.083
- MAL log2FC (Gene 4118): -0.429
- MAX log2FC (Gene 4149): -0.351
- MCF2 log2FC (Gene 4168): 0.031
- MCL1 log2FC (Gene 4170): -1.349
- MDK log2FC (Gene 4192): 0.235
- MDM2 log2FC (Gene 4193): -0.113
- MECP2 log2FC (Gene 4204): -0.128
- MEF2A log2FC (Gene 4205): -0.174
- MEF2C log2FC (Gene 4208): 0.238
- MEF2D log2FC (Gene 4209): -0.520
- MAP3K5 log2FC (Gene 4217): -0.660
- MEN1 log2FC (Gene 4221): 0.029
- KITLG log2FC (Gene 4254): -0.218
- MGMT log2FC (Gene 4255): -0.055
- MIF log2FC (Gene 4282): 0.230
- MLH1 log2FC (Gene 4292): 0.343
- MAP3K9 log2FC (Gene 4293): -0.693
- MAP3K10 log2FC (Gene 4294): 0.639
- MAP3K11 log2FC (Gene 4296): -0.577
- MMP9 log2FC (Gene 4318): -0.279
- MNAT1 log2FC (Gene 4331): 0.589
- MNT log2FC (Gene 4335): 1.538
- MPO log2FC (Gene 4353): -0.006
- CITED1 log2FC (Gene 4435): -0.101
- MSH2 log2FC (Gene 4436): 0.786
- MSX1 log2FC (Gene 4487): -0.243
- MUC1 log2FC (Gene 4582): -0.282
- MUC2 log2FC (Gene 4583): -0.081
- MUC5AC log2FC (Gene 4586): -0.288
- MUSK log2FC (Gene 4593): -0.262
- MX1 log2FC (Gene 4599): 0.148
- MYC log2FC (Gene 4609): 0.421
- MYD88 log2FC (Gene 4615): -0.601
- GADD45B log2FC (Gene 4616): 0.857
- NBN log2FC (Gene 4683): 0.619
- NDUFS1 log2FC (Gene 4719): 0.294
- NF1 log2FC (Gene 4763): 0.451
- NFATC4 log2FC (Gene 4776): 0.296
- NFE2L2 log2FC (Gene 4780): 0.540
- NFKB1 log2FC (Gene 4790): -0.256
- NFKBIA log2FC (Gene 4792): -0.656
- NGFR log2FC (Gene 4804): -0.069
- NKX3-1 log2FC (Gene 4824): -0.386
- NME1 log2FC (Gene 4830): 0.199
- NME2 log2FC (Gene 4831): 0.205
- NME3 log2FC (Gene 4832): -0.013
- NMT1 log2FC (Gene 4836): -0.214
- NODAL log2FC (Gene 4838): -0.025
- NOS3 log2FC (Gene 4846): -0.168
- NOTCH2 log2FC (Gene 4853): 0.274
- NPM1 log2FC (Gene 4869): 0.282
- NPTX1 log2FC (Gene 4884): -0.756
- NPY5R log2FC (Gene 4889): -0.042
- SLC11A2 log2FC (Gene 4891): 0.320
- NRAS log2FC (Gene 4893): -0.535
- NTF3 log2FC (Gene 4908): -1.099
- NTRK2 log2FC (Gene 4915): -0.265
- NR4A2 log2FC (Gene 4929): 0.442
- OCLN log2FC (Gene 4950): 0.409
- OPA1 log2FC (Gene 4976): 0.350
- TNFRSF11B log2FC (Gene 4982): 0.966
- OSM log2FC (Gene 5008): -0.008
- P2RX1 log2FC (Gene 5023): -0.016
- P2RX4 log2FC (Gene 5025): 0.348
- P2RX7 log2FC (Gene 5027): -0.319
- SERPINB2 log2FC (Gene 5055): -0.093
- PAK1 log2FC (Gene 5058): 0.071
- PAK2 log2FC (Gene 5062): -0.103
- PARK2 log2FC (Gene 5071): -0.149
- PAWR log2FC (Gene 5074): 0.876
- PAX3 log2FC (Gene 5077): -0.114
- PAX4 log2FC (Gene 5078): -0.073
- PAX7 log2FC (Gene 5081): -0.197
- PCNT log2FC (Gene 5116): 0.446
- PDCD1 log2FC (Gene 5133): -0.284
- PDCD2 log2FC (Gene 5134): -0.282
- PDE1A log2FC (Gene 5136): -0.171
- PDK1 log2FC (Gene 5163): 0.405
- PDK2 log2FC (Gene 5164): 1.524
- PDK4 log2FC (Gene 5166): 0.866
- PDPK1 log2FC (Gene 5170): 0.478
- PHB log2FC (Gene 5245): -0.382
- SERPINB9 log2FC (Gene 5272): -0.438
- SERPINB10 log2FC (Gene 5273): 0.028
- PIK3CA log2FC (Gene 5290): 0.818
- PIM1 log2FC (Gene 5292): 1.292
- PIK3R1 log2FC (Gene 5295): 0.203
- PLAGL1 log2FC (Gene 5325): 0.317
- PLAGL2 log2FC (Gene 5326): -1.296
- PLK1 log2FC (Gene 5347): -0.016
- PLSCR1 log2FC (Gene 5359): 0.371
- PMAIP1 log2FC (Gene 5366): -1.121
